Source: BindingDB's records for doi:10.1021/acsmedchemlett.7b00315 (Astrazeneca, 2017)

How the values were obtained:
[1] = Antagonist activity at human CCR4 expressed in Th2 cells coexpressing CD45RA+ assessed as inhibition of CCL17 induced chemotaxis
[2] = Antagonist activity at human CCR4 expressed in Th2 cells coexpressing CD45RA+ assessed as inhibition of CCL22 induced chemotaxis
[3] = Antagonist activity at CCR4 in human primary Th2 cells by chemotaxis assay

Row | IC50 [1] [nM] | IC50 [2] [nM] | IC50 [3] [nM] | SMILES
1 | 501 | 501 |  | COc1nccnc1NS(=O)(=O)c1cccc(Cl)c1Cl
2 | 316 | 158 |  | COc1nc(F)cnc1NS(=O)(=O)c1cccc(Cl)c1Cl
3 |  |  | 200 | COc1nc(Br)cnc1NS(=O)(=O)c1ccc(Cl)s1
